The values that follow come from US12180187B2, “1-phenyl-5-azinylpyrazolyl-3-oxyalkyl acids and their use for controlling unwanted plant growth” (BAYER AKTIENGESELLSCHAFT, priority 2019, dated 2024).

The test system of assay [1] is DIGSA. The assay is described as follows: Pre-emergence action against DIGSA, 1280 g/ha. It counts as in vivo, Digitaria sanguinalis. The following applies: visual scoring after about 3 weeks vs untreated controls, 100% = plants have died, 0% = like control plants. The method, boiled down: (§1)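 Pre-emergence pot test: seeds in sandy loam, soil-covered, sprayed on soil surface (WP/EC, 0.5% additive, 600 L/ha water); greenhouse ~3 wk; visual % effect vs untreated, 0–100%.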

For another assay, the system named is SETVI. The assay can be described thus: Post-emergence action against SETVI, 1.28 kg/ha. It counts as in vivo, Setaria viridis. The following applies: dosage 1280 g/ha, visual rating about 3 weeks after treatment vs untreated controls. The method, boiled down:
(§2)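 Foliar application at the one-leaf stage: compound as WP or EC in water with 0.5% additive, sprayed at 600 L/ha. Plants are kept about 3 weeks in the greenhouse, then % herbicidal action is estimated visually (100% = death).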

For a further assay, the system named is ECHCG. The assay is described as follows: Post-emergence action at 320 g/ha against ECHCG. It is filed as in vivo, Echinochloa crus-galli. The note with it: dosage 320 g/ha, visual rating about 3 weeks after treatment vs untreated controls (100% = plants died). The method, boiled down: (§3)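 Sow in sandy loam → greenhouse growth 2–3 wk → spray at one-leaf stage (WP/EC, aqueous, +0.5% additive, 600 l/ha) → hold ~3 wk under optimum conditions → visual rating, 0–100% relative to untreated.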

For another assay, the system named is VERPE. The assay can be described thus: Post-emergence action against VERPE, 1.28 kg/ha. It counts as in vivo, Veronica persica. The note with it: dosage 1280 g/ha, visual rating about 3 weeks after treatment vs untreated controls (100% = plants died). The method, boiled down:
as §2

Assay [2] concerns DIGSA. The assay is described as follows: Post-emergence action at 320 g/ha against DIGSA. It is filed as in vivo, Digitaria sanguinalis. The note with it: dosage 320 g/ha, visual rating about 3 weeks after treatment vs untreated controls (100% = plants died). The method, boiled down:
as §3

The next assay has as its system ABUTH. The assay can be described thus: Pre-emergence action against ABUTH, 1280 g/ha. It counts as in vivo, Abutilon theophrasti. The note with it: scored visually after about 3 weeks vs untreated controls (100% = plants have died). The method, boiled down:
as §1

The subject of assay [3] is VIOTR. The assay is described as follows: Pre-emergence action at 320 g/ha against VIOTR. It is filed as in vivo, Viola tricolor. The following applies: dosage 320 g/ha. The method, boiled down:
(§4)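 WP/EC formulations applied pre-emergence to covering soil, water rate 600 l/ha, 0.5% additive. Greenhouse, ~3 weeks. Visual % damage vs untreated (0–100%).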

The subject of the next assay is PHBPU. The assay can be described thus: Post-emergence action at 320 g/ha against PHBPU. It counts as in vivo. The following applies: visual rating about 3 weeks after treatment vs untreated controls. The method, boiled down:
as §3

Another assay relates to AVEFA. The assay can be described thus: Pre-emergence action at 320 g/ha against AVEFA. It counts as in vivo. The note with it: visual scoring after about 3 weeks vs untreated controls. The method, boiled down:
as §4

Assay [4] concerns AMARE. The assay can be described thus: Post-emergence action at 320 g/ha against AMARE. It is filed as in vivo, Amaranthus retroflexus. The note with it: visual rating about 3 weeks after treatment vs untreated controls. The method, boiled down:
as §3

A further assay relates to LOLRI. The assay is described as follows: Post-emergence action against LOLRI, 1.28 kg/ha. It is filed as in vivo, Lolium rigidum. The following applies: dosage 1280 g/ha, visual rating about 3 weeks after treatment vs untreated controls. The method, boiled down: as §2
For assay [5], the system named is VIOTR. The assay is described as follows: Post-emergence action at 320 g/ha against VIOTR. It counts as in vivo, Viola tricolor. The note with it: visual rating about 3 weeks after treatment vs untreated controls. The method, boiled down:
as §3

Assay [6] concerns ALOMY. The assay can be described thus: Pre-emergence action against ALOMY, 1280 g/ha. It counts as in vivo, Alopecurus myosuroides. The note with it: visual scoring after about 3 weeks vs untreated controls, 100% = plants have died, 0% = like control plants. The method, boiled down: as §1
Assay [7] has as its system ALOMY. The assay is described as follows: Post-emergence action against ALOMY, 320 g/ha. It counts as in vivo, Alopecurus myosuroides. The following applies: dosage 320 g/ha, visual rating about 3 weeks after treatment vs untreated controls (100% = plants died). The method, boiled down:
as §3

Assay [8] has as its system AMARE. The assay can be described thus: Post-emergence action against AMARE, 1.28 kg/ha. It counts as in vivo, Amaranthus retroflexus. The note with it: dosage 1280 g/ha, visual rating about 3 weeks after treatment vs untreated controls (100% = plants died). The method, boiled down:
as §2

Another assay relates to POLCO. The assay is described as follows: Post-emergence action at 320 g/ha against POLCO. It is filed as in vivo, Fallopia convolvulus (Polygonum convolvulus). The note with it: visual rating about 3 weeks after treatment vs untreated controls. The method, boiled down:
as §3

On to `COC(=O)COc1nn(-c2ccccc2F)c(-c2cncc(F)c2)c1Br` [VII-035], for which, in the assay with DIGSA [1], the “Pre-emergence action against DIGSA” value worked out at 90%. For the same compound, the “Post-emergence action against SETVI” value in the assay on SETVI is given as 90%. Moreover, the “Post-emergence action at 320 g/ha against ECHCG in %” value with ECHCG is on record as 90%. Moreover, in the assay with VERPE, the “Post-emergence action against VERPE” value was 100%. Also, in the assay with DIGSA [2], the “Post-emergence action at 320 g/ha against DIGSA in %” value is 100%. Besides, the “Pre-emergence action against ABUTH” value with ABUTH was 90%. Further, in the assay on VIOTR [3], the “Pre-emergence action against VIOTR in %” value worked out at 100%. Further, the “Post-emergence action against PHBPU in %” value in the assay with PHBPU is listed as 100%. The “Pre-emergence action against AVEFA in %” value in the assay on AVEFA is listed as 90%. Besides, in the assay with AMARE [4], the “Post-emergence action against AMARE in %” value worked out at 90%. Moreover, the “Post-emergence action against LOLRI” value with LOLRI amounted to 100%. The “Post-emergence action against VIOTR in %” value in the assay on VIOTR [5] came to 90%. Besides, in the assay with ALOMY [6], the “Pre-emergence action against ALOMY” value turned out to be 100%. For the same compound, in the assay on ALOMY [7], the “Post-emergence action against ALOMY” value was determined as 90%. For the same compound, in the assay with AMARE [8], the “Post-emergence action against AMARE” value is recorded as 90%. Moreover, the “Post-emergence action against POLCO in %” value with POLCO is listed as 90%.
